Experimental data published in US4041048A, “3,2-Benzoxazepine derivatives” (Gruppo Lepetit S.p.A., priority 1971, dated 1977).

How the values were obtained:
[1] = test system: central nervous system; assay: Impairment of motor coordination and righting reflex in mice (hypnotic properties); format: in vivo; conditions: Mus musculus, ip, read-out: ED50, Impairment of motor coordination and righting reflex
Experimental: (§1) Decreasing the spontaneous activity in mice after intraperitoneal administration of an effective amount of the compounds was taken as a measure of the sedative effect, while impairment of motor coordination and righting reflex were related to hypnotic properties. The myorelaxing characteristics were evaluated by considering the body tone, while the anxiety-relieving effect was measured on the basis of the inhibition of the secondary conditioned avoidance response.

[2] = test system: central nervous system; assay: Decrease of spontaneous activity in mice (sedative effect); format: in vivo; conditions: Mus musculus, ip, read-out: ED50, Spontaneous activity
Experimental: as §1

[3] = test system: central nervous system; assay: Body tone in mice (myorelaxing characteristics); format: in vivo; conditions: Mus musculus, ip, read-out: ED50, Body tone
Experimental: as §1

[4] = test system: central nervous system; assay: Inhibition of secondary conditioned avoidance response in mice (anxiety-relieving effect); format: in vivo; conditions: Mus musculus, ip, read-out: ED50, Secondary conditioned avoidance response
Experimental: as §1

[5] = Toxicity, LD50 in mice i.p.; conditions: mouse, in vivo, ip
[6] = test system: carrageenin-induced edema; assay: Carrageenin-induced edema test (anti-inflammatory activity); format: in vivo; conditions: 100 mg/kg p.o., rats
Source text: |Carrageenin-induced edema test

[7] = LD50 to which the edema test dose is related; format: in vivo; conditions: rats

Compound | ED50 ([1]; i.p. in mice) | ED50 ([2]; i.p. in mice) | ED50 ([3]; i.p. in mice) | ED50 ([4]; i.p. in mice) | LD50 [5] | % Decrease of the edema [6] | dose of 100 mg/kg per os as fraction of the LD50 value [7] | also measured
CC1NOCCc2ccccc21 (stereo not drawn) [Example 4, 1-Methyl-1,2,4,5-tetrahydro-3,2-benzoxazepine] | 60 mg/kg | 100 mg/kg | 20 mg/kg | 60 mg/kg | – | – | – | –
CC1c2ccccc2CCON1C(N)=O (stereo not drawn) [Example 6, 2-Carbamyl-1-methyl-1,2,4,5-tetrahydro-3,2-benzoxazepine] | 60 mg/kg | 60 mg/kg | 80 mg/kg | 15 mg/kg | > 500 mg/kg | – | – | –
CC1c2ccccc2CCON1C (stereo not drawn) [Example 7, 1,2-Dimethyl-1,2,4,5-tetrahydro-3,2-benzoxazepine] | – | – | – | – | > 500 mg/kg | 30% | about one-tenth to about one-fifth | –
NC(=O)OCCN1Cc2ccccc2CCO1 [Example 9, 2-(2-Carbamyloxyethyl)-1,2,4,5-tetrahydro-3,2-benzoxazepine] | – | – | – | – | > 500 mg/kg | – | – | ED50 [1]: 100 mg/kg; ED50 [2]: 100 mg/kg; ED50 [3]: 300 mg/kg; ED50 [4]: 30 mg/kg
CCN(CC)C(=O)N1OCCc2ccccc2C1C (stereo not drawn) [Example 11, 2-Diethylcarbamyl-1-methyl-1,2,4,5-tetrahydro-3,2-benzoxazepine] | – | – | – | – | > 500 mg/kg | 31% | about one-tenth to about one-fifth | –
CC(C)=CC(=O)N1OCCc2ccccc2C1C (stereo not drawn) [Example 12, 1-Methyl-2-(3-methyl-2-butenoyl)-1,2,4,5-tetrahydro-3,2-benzoxazepine] | – | – | – | – | > 500 mg/kg | – | – | –
CNC(=O)N1OCCc2ccccc2C1C (stereo not drawn) [Example 15, 1-Methyl-2-methylcarbamyl-1,2,4,5-tetrahydro-3,2-benzoxazepine] | – | – | – | – | > 500 mg/kg | 31.5% | about one-tenth to about one-fifth | –
CN1Cc2ccccc2CCO1 [Example 16] | 120 mg/kg | 100 mg/kg | 10 mg/kg | 40 mg/kg | > 500 mg/kg | 30.5% | about one-tenth to about one-fifth | –
C=CCN1OCCc2ccccc2C1C (stereo not drawn) [Example 17] | – | – | – | – | > 500 mg/kg | – | – | –
CC(=O)N1OCCc2ccccc2C1C (stereo not drawn) [Example 18, 2-acetyl-1-methyl-1,2,4,5-tetrahydro-3,2-benzoxazepine] | 60 mg/kg | 100 mg/kg | 200 mg/kg | 60 mg/kg | – | – | – | –
CC1c2ccccc2CCON1C(=O)N1CCOCC1 (stereo not drawn) [Example 24] | – | – | – | – | > 500 mg/kg | 32% | about one-tenth to about one-fifth | –
